# Experimental data from publication PMC7481428, “Celastrol induces ROS-mediated apoptosis via directly targeting peroxiredoxin-2 in gastric cancer cells” (Theranostics, 2020).
# pKd: −log10 of the molar value.
# Molecular target: T1, peroxiredoxin-2 (Prdx2) (Homo sapiens, UniProt P32119)
# T1 construct: His-tagged recombinant Prdx2 (rhPrdx2)
# T1 sequence (P32119 2-198): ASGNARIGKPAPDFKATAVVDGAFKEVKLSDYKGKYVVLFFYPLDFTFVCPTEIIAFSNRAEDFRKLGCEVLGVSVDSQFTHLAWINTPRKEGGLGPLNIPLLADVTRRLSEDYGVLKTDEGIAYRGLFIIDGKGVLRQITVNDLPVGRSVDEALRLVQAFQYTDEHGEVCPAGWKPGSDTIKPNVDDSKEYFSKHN
# Assay: ITC (also SPR KD […]; peroxidase inhibition IC50 […])
# Assay type: binding
compound,measurement,value
CC1=C(O)C(=O)C=C2C1=CC=C1[C@@]2(C)CC[C@@]2(C)[C@@H]3C[C@](C)(C(=O)O)CC[C@]3(C)CC[C@]12C [Celastrol],pKd,6.19
